# Measured values from PMC12414742, “Amphipathic Octenyl‐Alanine Modified Peptides Mediate Effective siRNA Delivery” (Journal of Peptide Science, 2025).
# Where no end group is shown, it is not given here.
# Legend:
# [1] = cited from earlier work
# Excerpt: Given that the differences in the peptide hydrophobicity and amphipathicity come from the number of carbons introduced by the alanine and alkenyl‐alanine side chains: three carbons for Ctrl peptide, 13 and 17 for hPep1 an ...
# [2] = CD spectroscopy, secondary structure estimation; assay type: physicochemical; conditions: CD in MQ water, 100 μM peptide, 25°C, Reed's estimation; for proportion of alpha helical structure: 1-mm cuvette
# Procedure: CD spectra were recorded on a Jasco J‐1500 CD spectrometer (Jasco, Japan) at 25°C at a concentration of 100 μM. Peptides were dissolved in MQ water and measured using 1‐mm pathlength quartz cuvette. The secondary structure estimates were calculated on the “Protein Secondary Structure Estimation” plugin in the Spectra Manager 2.13 software by using Reed's estimation.
# siRNA = assay: Heparin displacement assay (complex stability); assay type: physicochemical; conditions: peptide/siRNA complexes at MR30 in MQ water, heparin at different concentrations, 15 min RT, SYBR Gold fluorescence, n = 3 in duplicates
# Procedure: For the heparin displacement assay, peptide/siRNA complexes were formed in MQ water at MR30. Fifty microliters of complexes was then transferred to each well of a black 96‐well plate and mixed with 100 μL of 2X SYBR Gold dye (Thermo Fisher Scientific, USA), incubated, and then 50 μL of heparin (Sigma‐Aldrich, USA) solution with different concentrations was added. After 15 min at RT, the fluorescence was measured by Synergy Mx Microplate Reader (BioTek, USA) (ex = 495 nm, em = 537 nm) to determine the amount of accessible siRNA in the complexes. The data was normalized to the fluorescence of free siRNA (defined as 100%) and are expressed as a percentage of accessible siRNA. The results are shown as mean ± SEM of n = 3 in duplicates.
# [3] = DLS size, PDI and zeta potential of peptide/siRNA complexes; assay type: physicochemical
# Procedure: The physicochemical properties (nanoparticle size, polydispersity index [PDI], and zeta potential) of peptide/siLuc complexes were measured by DLS (dynamic light scattering) using the Zetasizer Nano ZS apparatus (Malvern Instruments, UK).
# The size and zeta potential of peptide/siLuc particles were measured at MR30 for hPep1, hPep2, and Ctrl peptide. For hPep3, measurements were also taken at different MRs (5–35). The complexes were formulated in 50 μL at a 2 μM final siRNA concentration for size measurement. The average diameter was obtained from three technical replicates, and one measurement was set to five runs (run duration 8 s) in disposable ZEN0040 cuvettes (Malvern Instruments, UK).
# To measure the zeta potential, the complexes were diluted eight times in 10 mM HEPES 7.4 buffer. The zeta potential was obtained from three technical measurements in disposable DTS1070 cuvettes (Malvern Instruments, UK) with the number of runs set to automatic. The results are shown as an average of three separate experiments (mean ± SEM). All measurements were performed at 22°C.
# bovine red blood cells = assay: Hemolysis (erythrocyte leakage) assay; assay type: cell-based; conditions: peptide alone 10 μM, 2% RBCs in HBG pH 5.5, 37°C, 1 h, absorbance 450 nm, n = 3 in triplicates
# Procedure: The hemolysis experiments were carried out with bovine red blood cells (RBCs) (Håtunalab, Sweden). The cells were washed three times with HBG 7.4 and then diluted to a final concentration of 2% RBCs in HBG with noted pH. Ten microliters of peptides was added to 190 μL of cells in PCR plates and shaken at 37°C for 1 h. Then the cells were spun down at 500 × g, and 100 μL of supernatant was transferred to transparent 96‐well tissue culture plates. The absorbance of released hemoglobin was measured at 450 nm on a plate reader (Tecan Sunrise, Switzerland). As a positive control, 10% Triton X‐100 was used, while HBG served as a negative control. The percentage of hemolysis was calculated by the formula: hemolysis (%) = [(AS − AN)/(AP − AN)] × 100, where AS is the absorbance for the sample, AP for positive control, and AN for negative control. The results are shown as mean ± SEM of n = 3, done in triplicates.
# [4] = DLS, peptide/siLuc complexes at MR30, 2 μM siRNA, 22°C, mean of n = 3
proportion of alpha helical structure [2],random structure estimate [2] [%],stability of the NPs against heparin (siRNA release) (siRNA),"PDI [3, 4]","NP size (hydrodynamic diameter) [3, 4]",zeta potential of the complexes ([3]; all tested MRs (5-35)),"zeta potential ([3]; peptide/siLuc complexes at MR30, diluted eight times in 10 mM HEPES 7.4, 22°C, mean of n = 3) [mV]",Substance,order of hydrophobicity of the peptides [1],hemolytic (lytic) activity (bovine red blood cells)
15%,> 60,Ctrl < hPep1 < hPep2 < hPep3,0.265,–,–,–,"H‐LAKLAKA{R8}AKLLKA{S5}AKAL‐NH2 [hPep1, C-terminally amidated amphipathic CPP with one octenyl- and one pentenyl-alanine]",hPep1 < hPep2 < hPep3,–
zero,> 60,Ctrl < hPep1 < hPep2 < hPep3,–,~ 2000 nm,stayed negative at all tested MRs,−23.7,LAKLAKAAAKLLKAAAKAL-NH2 [Ctrl],–,almost no activity
